# Reference: ChEMBL document CHEMBL1155124, “Synthesis and activity of N-cyanoguanidine-piperazine P2X7 antagonists” (Bioorg Med Chem Lett, 2008)
# Active and inactive are the calls of the source. The rule behind the calls is not given here.
# Tests used:
# [1] = molecular target: T1, P2X purinoceptor 7 (Rattus norvegicus, UniProt Q64663); experiment: Antagonist activity at rat recombinant P2X7 receptor assessed as inhibition of BzATP induced calcium flux by FLIPR assay; type: functional
# T1 sequence (Q64663 whole entry): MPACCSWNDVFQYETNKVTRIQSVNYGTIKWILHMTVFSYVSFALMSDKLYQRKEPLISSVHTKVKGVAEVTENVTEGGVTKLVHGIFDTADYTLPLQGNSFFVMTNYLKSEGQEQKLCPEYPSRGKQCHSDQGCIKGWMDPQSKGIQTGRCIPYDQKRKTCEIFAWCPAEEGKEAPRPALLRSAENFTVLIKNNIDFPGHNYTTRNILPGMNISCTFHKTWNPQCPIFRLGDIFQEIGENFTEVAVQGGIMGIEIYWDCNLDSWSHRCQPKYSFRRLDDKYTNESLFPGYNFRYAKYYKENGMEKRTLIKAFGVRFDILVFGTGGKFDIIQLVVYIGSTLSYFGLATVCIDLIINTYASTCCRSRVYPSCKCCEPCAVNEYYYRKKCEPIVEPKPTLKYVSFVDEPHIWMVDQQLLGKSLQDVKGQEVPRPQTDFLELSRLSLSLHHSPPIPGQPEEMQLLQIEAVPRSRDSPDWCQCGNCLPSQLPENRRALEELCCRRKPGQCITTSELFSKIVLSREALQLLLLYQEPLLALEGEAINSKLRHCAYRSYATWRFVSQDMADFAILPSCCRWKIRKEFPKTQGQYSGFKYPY
# [2] = system: Blood; experiment: Inhibition of IL1-beta release in LPS/ATP stimulated human whole blood; type: functional, tissue-based
# [3] = Metabolic stability in rat liver microsomes assessed as compound remaining after 1 hr; type: ADME, Microsome; conditions: read-out: Stability
# [4] = molecular target: T2, P2X purinoceptor 7 (Homo sapiens, UniProt Q99572); experiment: Antagonist activity at human recombinant P2X7 receptor assessed as inhibition of BzATP induced calcium flux by FLIPR assay; type: functional
# T2 sequence (Q99572 whole entry): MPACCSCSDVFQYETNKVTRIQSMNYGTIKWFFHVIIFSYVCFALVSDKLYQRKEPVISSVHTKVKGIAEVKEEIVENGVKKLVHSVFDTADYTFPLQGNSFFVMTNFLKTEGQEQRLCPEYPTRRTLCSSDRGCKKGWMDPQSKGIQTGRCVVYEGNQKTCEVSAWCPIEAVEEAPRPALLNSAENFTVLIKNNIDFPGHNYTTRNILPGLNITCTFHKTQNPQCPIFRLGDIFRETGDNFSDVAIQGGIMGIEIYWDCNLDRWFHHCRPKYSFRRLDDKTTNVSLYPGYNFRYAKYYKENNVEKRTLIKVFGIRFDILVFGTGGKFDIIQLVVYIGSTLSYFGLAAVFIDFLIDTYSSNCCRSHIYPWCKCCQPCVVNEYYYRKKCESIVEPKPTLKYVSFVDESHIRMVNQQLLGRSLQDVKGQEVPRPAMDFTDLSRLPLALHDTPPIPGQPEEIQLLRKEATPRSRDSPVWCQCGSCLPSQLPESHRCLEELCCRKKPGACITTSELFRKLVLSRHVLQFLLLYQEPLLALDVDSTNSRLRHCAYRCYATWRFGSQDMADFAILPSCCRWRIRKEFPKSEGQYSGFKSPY
# [5] = Metabolic stability in rat liver microsomes assessed as compound remaining after 25 mins; type: ADME, Microsome; conditions: read-out: Stability
# [6] = Plasma clearance in rat at 5 mg/kg, iv; type: ADME, organism-based; set-up: dose 5 mg/kg, route intravenous
# [7] = molecular target: P2X2/P2X3 heterotrimeric receptor (Homo sapiens) (UniProt Q9UBL9+P56373); experiment: Antagonist activity at P2X2/3 receptor at 10 uM; type: functional
# [8] = molecular target: T3, P2X purinoceptor 3 (Homo sapiens) (UniProt P56373); experiment: Antagonist activity at P2X3 receptor at 10 uM; type: functional
# T3 sequence (whole entry): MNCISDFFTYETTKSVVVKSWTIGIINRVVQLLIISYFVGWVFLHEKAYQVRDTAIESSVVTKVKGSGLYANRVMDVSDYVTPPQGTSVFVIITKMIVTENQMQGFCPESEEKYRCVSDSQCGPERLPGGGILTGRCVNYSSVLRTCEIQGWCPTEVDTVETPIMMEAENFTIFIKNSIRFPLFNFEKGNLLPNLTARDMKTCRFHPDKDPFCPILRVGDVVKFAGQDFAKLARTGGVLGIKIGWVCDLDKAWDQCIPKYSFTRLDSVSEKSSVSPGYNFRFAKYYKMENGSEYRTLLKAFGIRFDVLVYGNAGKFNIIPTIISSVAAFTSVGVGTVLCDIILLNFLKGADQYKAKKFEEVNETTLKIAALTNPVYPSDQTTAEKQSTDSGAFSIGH
# [9] = molecular target: T4, P2X purinoceptor 4 (Homo sapiens) (UniProt Q99571); experiment: Antagonist activity at P2X4 receptor at 10 uM; type: functional
# T4 sequence (whole entry): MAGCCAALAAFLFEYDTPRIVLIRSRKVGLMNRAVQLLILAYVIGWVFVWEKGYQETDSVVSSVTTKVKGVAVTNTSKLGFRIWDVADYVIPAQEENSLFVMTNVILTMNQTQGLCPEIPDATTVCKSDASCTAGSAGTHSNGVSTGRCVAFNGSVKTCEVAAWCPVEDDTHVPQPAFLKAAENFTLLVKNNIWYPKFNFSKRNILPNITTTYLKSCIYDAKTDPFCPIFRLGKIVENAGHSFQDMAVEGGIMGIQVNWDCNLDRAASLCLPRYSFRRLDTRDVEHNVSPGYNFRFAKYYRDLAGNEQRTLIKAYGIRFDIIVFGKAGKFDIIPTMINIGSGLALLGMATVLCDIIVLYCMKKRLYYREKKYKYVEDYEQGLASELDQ
# [10] = molecular target: P2Y purinoceptor 2 (Homo sapiens) (UniProt P41231); experiment: Antagonist activity at P2Y2 receptor at 10 uM; type: functional
# [11] = Half life in rat at 5 mg/kg, iv; type: ADME, organism-based; set-up: dose 5 mg/kg, route intravenous; conditions: in vivo
# [12] = Aqueous solubility of the compound; type: physicochemical; conditions: buffer
# [13] = Oral bioavailability in rat; type: ADME, organism-based; conditions: in vivo
# [14] = Volume of distribution at steady state in rat at 5 mg/kg, iv; type: ADME, organism-based; set-up: dose 5 mg/kg, route intravenous; conditions: in vivo, read-out: Vdss
# [15] = system: Blood; experiment: Inhibition of IL18 release in LPS/ATP stimulated human whole blood; type: functional, tissue-based
# P2Y purinoceptor 2 (Homo sapiens), sequence (P41231 whole entry): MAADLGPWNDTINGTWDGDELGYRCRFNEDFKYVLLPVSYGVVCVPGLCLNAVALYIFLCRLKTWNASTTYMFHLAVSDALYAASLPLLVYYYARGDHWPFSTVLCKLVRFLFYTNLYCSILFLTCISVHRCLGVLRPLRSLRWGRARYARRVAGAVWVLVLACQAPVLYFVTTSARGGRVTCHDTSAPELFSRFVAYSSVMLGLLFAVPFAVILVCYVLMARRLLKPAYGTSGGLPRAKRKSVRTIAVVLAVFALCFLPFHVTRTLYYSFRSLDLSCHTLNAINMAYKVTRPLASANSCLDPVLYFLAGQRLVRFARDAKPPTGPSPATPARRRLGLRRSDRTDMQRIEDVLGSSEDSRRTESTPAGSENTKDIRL
SMILES,IC50 [1] [nM],IC50 [2] [nM],IC50 [4] [nM],also measured
Cc1ccccc1N=C(NC#N)N1CCN(Cc2ccc(Cl)cc2)C(c2ccccc2)C1 (configuration not stated),> 10000,,> 10000,
COc1ccc(NC(=O)N2CCN(C(=Nc3ccccc3C)NC#N)CC2c2ccccc2)cc1OC (configuration not stated),178,,25,
Cc1ccc2c(N/C(=N\C#N)N3CCN(C(=O)Nc4ccc(Cl)cc4)CC3C(C)C)cccc2n1 (configuration not stated),,120,,Activity [7]: inactive; Activity [8]: inactive; Activity [9]: inactive; Activity [10]: inactive
CC(C)C1CN(C(=O)Nc2cccc(F)c2)CCN1C(=Nc1cccc2[nH]ncc12)NC#N (configuration not stated),,1590,250,
CN(C)Cc1ccccc1N=C(NC#N)N1CCN(C(=O)Nc2ccc(Cl)cc2)C(c2ccccc2)C1 (configuration not stated),1070,,480,
CC(C)C1CN(C(=O)Nc2cccc(F)c2)CCN1C(=Nc1cccc2occc12)NC#N (configuration not stated),,,24900,
Cc1ccc2c(N=C(NC#N)N3CCN(C(=O)Nc4ccc(Cl)cc4)CC3C(C)C)cccc2n1 (configuration not stated),151,,93,remaining at 1 h [3]: 74%; half-life [11]: 4.4 h; clearance [6]: 23.3 mL/min/kg; solubility [12]: 19 µg/mL; bioavailability [13]: 5%; Vd [14]: 11.8 L/kg
N#C/N=C(\Nc1cccnc1)N1CCN(C(=O)Nc2ccc(Cl)cc2)C(c2ccccc2)C1 (configuration not stated),2040,,1330,
N#CNC(=Nc1cccc2[nH]ccc12)N1CCN(C(=O)Nc2ccc(Cl)cc2)C(c2ccccc2)C1 (configuration not stated),56,12200,130,
CC(C)C1CN(C(=O)Nc2cccc(F)c2)CCN1C(=Nc1cccc2c1CCCN2)NC#N (configuration not stated),,460,60,
Cc1ccc(N/C(=N\C#N)N2CCN(C(=O)Nc3ccc(Cl)cc3)CC2C(C)C)c2cccnc12 (configuration not stated),,,,remaining at 1 h [3]: 64%
Cc1ccccc1N=C(NC#N)N1CCN(C(=O)Nc2ccc(Cl)cc2)C(c2ccccc2)C1 (configuration not stated),95,1190,132,IC50 [15]: 1260 nM; half-life [11]: 0.9 h; clearance [6]: 68.3 mL/min/kg; Vd [14]: 5.3 L/kg
Cc1ccccc1N=C(NC#N)N1CCN(S(=O)(=O)c2ccc(Cl)cc2)C(c2ccccc2)C1 (configuration not stated),4060,,540,
CC(C)C1CN(C(=O)Nc2ccc(Cl)cc2)CCN1C(=Nc1cccc2c1CCNC2)NC#N (configuration not stated),180,210,110,
Cc1ccccc1NC(=O)N1CCN(C(=O)Nc2ccc(Cl)cc2)C(c2ccccc2)C1 (configuration not stated),620,,780,
COc1ccc(CC(=O)N2CCN(C(=Nc3ccccc3C)NC#N)CC2c2ccccc2)cc1OC (configuration not stated),,,630,
CC(C)C1CN(C(=O)Nc2ccc(Cl)cc2)CCN1/C(=N/C#N)Nc1cccc2[nH]ccc12 (configuration not stated),110,470,45,

# Second part, led by results:
IC50 [1] [nM],IC50 [2] [nM],IC50 [4] [nM],SMILES,also measured
57,121,40,CC(C)C1CN(C(=O)Nc2ccc(Cl)cc2)CCN1C(=Nc1cccc2ncccc12)NC#N (configuration not stated),remaining at 1 h [3]: 43%; remaining at 25 min [5]: 43%; clearance [6]: 53.3 mL/min/kg
93,880,67,CC(C)C1CN(C(=Nc2cccc3ncccc23)NC#N)CCN1C(=O)Nc1ccc(Cl)cc1 (configuration not stated),
5190,,1660,Cn1cnc2c(N=C(NC#N)N3CCN(C(=O)Nc4ccc(Cl)cc4)C(c4ccccc4)C3)cccc21 (configuration not stated),
110,980,112,Cc1ccccc1N/C(=N\C#N)N1CCN(C(=O)Nc2ccc(Cl)cc2)C(C(C)C)C1 (configuration not stated),
,2640,,CC(C)C1CN(C(=O)Nc2ccc(Cl)cc2)CCN1/C(=N/C#N)Nc1cccc2nc(F)ccc12 (configuration not stated),remaining at 1 h [3]: 60%
125,,60,Cc1ccccc1N=C(NC#N)N1CCN(C(=O)Nc2ccc(Cl)cc2)CC1C(C)C (configuration not stated),
10300,,6400,Cc1ccccc1N/C(=N/C(N)=O)N1CCN(C(=O)Nc2ccc(Cl)cc2)C(c2ccccc2)C1 (configuration not stated),
290,,1030,Cc1ccccc1N=C(NC#N)N1CCN(C(=O)N(C)c2ccc(Cl)cc2)C(c2ccccc2)C1 (configuration not stated),
3110,,310,Cc1ccccc1N/C(=C/[N+](=O)[O-])N1CCN(C(=O)Nc2ccc(Cl)cc2)C(c2ccccc2)C1 (configuration not stated),
